Data on 19 molecules can be found in patent publication US4847268A, “8-phenylthio-tetrahydroquinolines and anti-allergic use thereof” (Roussel Uclaf, priority 1986, dated 1989).

SMILES strings stand for the structures. Where a name gives a salt, the structure may show the parent alone.

One experiment has as its target T1, 5-lipoxygenase (Rattus norvegicus, UniProt P12527).
T1 construct: pre-labelled rat peritoneal neutrophils; endogenous in cells; host or cells: rat peritoneal neutrophils
T1 sequence (P12527 1-673): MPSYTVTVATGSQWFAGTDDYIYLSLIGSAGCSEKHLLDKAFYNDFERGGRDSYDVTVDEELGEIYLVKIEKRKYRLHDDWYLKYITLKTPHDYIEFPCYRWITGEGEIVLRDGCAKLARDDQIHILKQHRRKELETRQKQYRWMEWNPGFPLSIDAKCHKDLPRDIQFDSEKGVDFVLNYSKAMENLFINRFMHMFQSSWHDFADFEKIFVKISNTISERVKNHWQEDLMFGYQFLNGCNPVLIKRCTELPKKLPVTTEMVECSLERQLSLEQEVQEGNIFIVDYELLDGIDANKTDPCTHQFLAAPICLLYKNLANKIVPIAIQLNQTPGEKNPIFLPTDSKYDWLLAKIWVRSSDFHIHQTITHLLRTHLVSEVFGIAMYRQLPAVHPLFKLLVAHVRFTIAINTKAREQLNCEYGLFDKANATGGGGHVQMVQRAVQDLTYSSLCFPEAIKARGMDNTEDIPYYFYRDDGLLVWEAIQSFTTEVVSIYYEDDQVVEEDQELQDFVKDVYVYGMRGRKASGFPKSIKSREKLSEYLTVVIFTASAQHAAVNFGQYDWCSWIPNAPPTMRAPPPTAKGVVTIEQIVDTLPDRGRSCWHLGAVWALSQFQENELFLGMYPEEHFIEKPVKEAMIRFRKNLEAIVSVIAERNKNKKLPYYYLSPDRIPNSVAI
The experiment is described as follows: 5-LIPOX: inhibition of Ca++ ionophore (A23187)-induced release of 5-lipoxygenase products from [14C]-arachidonic acid pre-labelled rat peritoneal neutrophils. Type of experiment: cell-based. The note with it: A23187-induced release of leukotriene D4 and 5-HETE, determined graphically from dose-response curves, read-out: 5-LIPOX: concentration of test compound causing 50% inhibition of control response. An excerpt: A. 5-LIPOX Inhibition of the Ca^++ ionophore (A23187)-induced release of 5-lipoxygenase products ([…] and 5-HETE) from [^14 C]-arachidonic acid pre-labelled rat peritoneal neutrophils. Assayed by a modification of the method reported by Ahnfelt-Ronne et al [Biochemical Pharmacology, Vol. 31, No. 16, pp. 2619-2624 (1982)]. The data presented are micromolar concentrations of test compound causing 50% inhibition of control response determined graphically from dose-response curves.

For another experiment, the target named is T2, LTD4 receptor (Cavia porcellus, UniProt Q2NNR5).
T2 construct: a membrane preparation of guinea-pig lung tissue; from tissue; host or cells: guinea-pig lung membranes
T2 sequence (Q2NNR5 1-340): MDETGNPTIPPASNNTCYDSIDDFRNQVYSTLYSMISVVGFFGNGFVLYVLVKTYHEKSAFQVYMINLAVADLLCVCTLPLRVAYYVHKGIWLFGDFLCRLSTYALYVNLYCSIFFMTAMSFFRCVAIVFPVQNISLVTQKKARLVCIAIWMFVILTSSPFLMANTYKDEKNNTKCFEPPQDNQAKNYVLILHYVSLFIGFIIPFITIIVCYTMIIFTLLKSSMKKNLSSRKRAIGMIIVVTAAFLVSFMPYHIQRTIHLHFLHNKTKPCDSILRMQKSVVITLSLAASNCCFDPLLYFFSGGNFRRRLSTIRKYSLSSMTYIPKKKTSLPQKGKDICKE
The experiment in a line: LTD4 RECEPTOR: inhibition of specific binding of [3H]-LTD4 to a membrane preparation of guinea-pig lung tissue. The note with it: [3H]-LTD4, guinea-pig lung membrane preparation; determined graphically from dose-response curves; read-out: LTD4 receptor: concentration of test compound causing 50% inhibition of specific binding. An excerpt: B. LTD4 RECEPTOR Inhibition of the specific binding of [^3 H]-LTD4 to a membrane preparation of guinea-pig lung tissue assayed by a modification of a method reported by Bruns et al [Life Sciences, Vol. 33, pp. 645-653 (1983)]. The data presented are micromolar concentrations of test compound causing 50% inhibition of specific binding determined graphically from dose-response curves.

Take `COc1ccc(SC2CCCc3cccnc32)cc1` (stereo not shown) [Example 14, 8-(4-methoxyphenylthio)-5,6,7,8-tetrahydroquinoline hydrochloride]: the figures for the IC50 at 5-lipoxygenase and at LTD4 receptor were 13.2 µM and 16.6 µM, respectively. Consider `CC(=O)Oc1ccc(SC2CCCc3cccnc32)cc1` (stereo not shown) [Example 19, 8-(4-acetoxyphenylthio)-5,6,7,8-tetrahydroquinoline hydrochloride], for which the IC50 at 5-lipoxygenase is 45 µM. Regarding `O=[N+]([O-])c1cc(SC2CCCc3cccnc32)ccc1O` (stereo not shown) [Example 21, 8-(4-hydroxy-3-nitrophenylthio)-5,6,7,8-tetrahydroquinoline], the IC50 at 5-lipoxygenase was found to be 33 µM. Consider `O=[N+]([O-])c1ccc(SC2CCCc3cccnc32)cc1` (stereo not shown) [Example 4, 8-(4-nitrophenylthio)-5,6,7,8-tetrahydroquinoline hydrochloride], for which the IC50 at 5-lipoxygenase came to 12.6 µM; at LTD4 receptor it was 26.3 µM. In the case of `O=C(O)c1ccc(SC2CCCc3cccnc32)cc1` (stereo not shown) [Example 16, 4-(5,6,7,8-tetrahydroquinoline-8-ylthio)-benzoic acid], the IC50 at 5-lipoxygenase was above 100 µM. Consider `CCc1ccc(SC2CCCc3cccnc32)cc1` (stereo not shown) [Example 15, 8-(4-ethylphenylthio)-5,6,7,8-tetrahydroquinoline hydrochloride], for which the IC50 at 5-lipoxygenase is 4 µM. Same read-out and setting: as for `CCCCOc1ccc(SC2CCCc3cccnc32)cc1` (stereo not shown) [Example 17, 8-(4-n-Butoxyphenylthio)-5,6,7,8-tetrahydroquinoline hydrochloride], the figure is 3.7 µM; as for `N#Cc1ccc(SC2CCCc3cccnc32)cc1` (stereo not shown) [Example 2, 4-(5,6,7,8-tetrahydroquinoline-8-ylthio)-benzonitrile], 31 µM. On the same count and under the same terms, to `CCCCCC(O)c1cccc(SC2CCCc3cccnc32)c1` (stereo not shown) [Example 11, 8[3-(1-hydroxyhexyl)-phenylthio]-5,6,7,8-tetrahydroquinoline] belongs 5.6 µM. The same measure, in the same setting: as for `c1cnc2c(c1)CCCC2Sc1ccc2ccccc2c1` (stereo not shown) [Example 9, 8-(2-naphthylthio)-5,6,7,8-tetrahydroquinoline hydrochloride], the figure is 2.3 µM. For the molecule `Clc1ccc(SC2CCCc3cccnc32)cc1` (stereo not shown) [Example 1, 8-(4-chlorophenylthio)-5,6,7,8-tetrahydroquinoline hydrochloride], the IC50 stood at 4.2 µM at 5-lipoxygenase and 22.4 µM at LTD4 receptor. As to `c1cnc2c(c1)CCCC2Sc1cccc2ccccc12` (stereo not shown) [Example 6, 8-(1-naphthylthio)-5,6,7,8-tetrahydroquinoline], the IC50 at 5-lipoxygenase came out at 1.7 µM; at LTD4 receptor, 52.5 µM. For `CCCCc1ccc(SC2CCCc3cccnc32)cc1` (stereo not shown) [Example 10, 8-(4-n-butylphenylthio)-5,6,7,8-tetrahydroquinoline hydrochloride], the IC50 at 5-lipoxygenase was determined as 1.9 µM. As for `Nc1ccc(SC2CCCc3cccnc32)cc1` (stereo not shown) [Example 7, 8-(4-aminophenylthio)-5,6,7,8-tetrahydroquinoline], the results for the IC50 on 5-lipoxygenase and on LTD4 receptor were 25 µM and above 100 µM, respectively.

Regarding `Cc1ccc(SC2CCCc3cccnc32)cc1` (stereo not shown) [Example 5, 8-(4-methylphenylthio)-5,6,7,8-tetrahydroquinoline hydrochloride], the IC50 on 5-lipoxygenase was determined as 3 µM; at LTD4 receptor it was 23.4 µM. For the molecule `NS(=O)(=O)c1ccc(SC2CCCc3cccnc32)cc1` (stereo not shown) [Example 12, 4-(5,6,7,8-tetrahydroquinoline-8-ylthio)-benzenesulfonamide], the IC50 at 5-lipoxygenase was 26 µM. The same measure, in the same setting: as for `COC(=O)c1ccc(SC2CCCc3cccnc32)cc1` (stereo not shown) [Example 20, Methyl 4-(5,6,7,8-tetrahydroquinoline-8-ylthio)-benzoate hydrochloride], the figure is 18.6 µM. For `Oc1ccc(SC2CCCc3cccnc32)cc1` (stereo not shown) [Example 8, 8-(4-hydroxyphenylthio)-5,6,7,8-tetrahydroquinoline], the IC50 on 5-lipoxygenase came to 14.1 µM.

Take `CCOc1ccc(SC2CCCc3cccnc32)cc1` (stereo not shown) [Example 18, 8-(4-ethoxyphenylthio)-5,6,7,8-tetrahydroquinoline hydrochloride]: the IC50 at 5-lipoxygenase worked out at 11.2 µM.
